Measured values taken from patent US10287311B2, “Modified fluorinated nucleoside analogues” (priority 2003, dated 2019).
Like-named read-outs stand apart in the source and are kept apart here.

Columns and labels:
BVDV = test: (BVDV) yield reduction assay; type: cell-based, bovine viral diarrhea virus; conditions: for EC90: Bovine viral diarrhea virus isolates and strains
Procedure: Madin-Darby Bovine Kidney (MDBK) cells were grown in Dulbecco's modified eagle medium supplemented with 10% horse serum and 100 μg/ml penicillin-streptomycin. Cells were seeded in a 96-well plate at 5×10^3 cells/well and incubated for 72h at 37° C. in a humidified 5% CO2 atmosphere. Cells were infected with either cytopathic (NADL strain) or noncytopathic (SD-1 strain) BVDV at a virus dilution of 10-2 and incubated for 45 min. Cell monolayers were washed three times with medium. Fresh medium-containing test compounds in dose response concentrations or ribavirin, as a positive control, were added to cultures and medium containing no drug was added to the no-drug controls. After 72h incubation, supernatant was collected and viral RNA was extracted using the QIAmp Viral RNA Mini Kit (Qiagen, CA). Viral load was determined by Q-RT-PCR using primers specific for either NADL or SD-1 (1).

RSV = test: Antiviral activity, RSV; type: cell-based; conditions: human respiratory syncytial virus
HBV = test: Antiviral activity, HBV; type: cell-based; conditions: Hepatitis B virus; HBV
[1] = Cytotoxicity assay (MTS), all cell lines tested; type: cell-based; conditions: human, bovine, African green monkey, Clone A, Huh7, HepG2, MDBK, PBM, CEM, Vero and MRC-5 cells; summary in text over all cell lines
Procedure: (§1) 50 μl of 2× drug dilutions were added per well in a 96 well plate. Final concentrations of drug ranged from 1 to 100 μM. A “no drug” (media only) control was used to determine the minimum absorbance values and a “cells+media only” control was used for maximum absorbance value. A solvent control was also used. Cells were then added (PBM: 5×10^4 cells/well; CEM: 2.5×10^3 cells/well; Vero, HepG2, Huh-7, and Clone A: 5×10^3 cells/well) and incubated at 37° C. in a humidified 5% CO2 atmosphere for 3-5 days (PBM: 5 days; CEM: 3 days, all others: 4 days). After incubation, 20 μl of MTS dye was added from Cell Titer Aqueous One Solution Cell Proliferation Assay to each well and the plate was re-incubated for 2-4 hours. The absorbance (490 nm) was then read on an ELISA plate reader using the media only/no cell wells as blanks. Percent inhibition was found and used to calculate the CC50.
In contrast is the relative toxicity of 2′-C-methyladenosine.

[2] = Cytotoxicity assay (MTS), CloneA; type: cell-based; conditions: human, Clone A cells
Procedure: as §1

[3] = Cytotoxicity assay (MTS), Huh7; type: cell-based; conditions: human, Huh7 cells
Procedure: as §1

[4] = Cytotoxicity assay (MTS), HepG2; type: cell-based; conditions: human, HepG2 cells
Procedure: as §1

[5] = Cytotoxicity assay (MTS), MDBK; type: cell-based; conditions: bovine, MDBK cells
HepG2 cells = test: Mitochondria toxicity assay; type: cell-based; conditions: 7 days
Procedure: Fifty microliters of 2× drug dilutions were added per well in a 96 well plate. […] Ribosomal DNA levels were used to determine specific toxicity to mitochondria or generally cytotoxicity. HepG2 cells (5,000 cells/well at 50 μl) were added to the plate. The plate was incubated at 37° C. in a humidified 5% CO2 atmosphere for 7 days. After incubation, the supernatant was removed and stored for lactic acid quantification, and total DNA was extracted from cells as described in the RNeasy 96 handbook (February 1999), pages 22-23. No DNA digestions were performed, therefore total RNA and DNA were extracted. The extracted DNA was amplified and the change in mitochondrial DNA and ribosomal DNA for each sample was determined. The fold difference in mitochondrial DNA normalized for ribosomal DNA relative to control was calculated. Lactic acid quantification was performed by the D-Lactic Acid/L-Lactic acid test kit (Boehringer Mannheim/R-Biopharm/Roche). The total amount of lactic acid produced for each sample was found as well as the fold change in lactic acid production (% of lactic acid/% of rDNA) as described in the manufacturers instructions.

[6] = tested on: Human bone marrow cells, BFU-E; test: Bone marrow toxicity assay, BFU-E; type: cell-based
Procedure: (§2) The culture assays for CFU-GM and BFU-E are performed using a bilayer soft agar or methylcellulose method. Drugs are diluted in tissue culture medium and filtered. After 14 to 18 days at 37° C. in a humidified atmosphere of 5% CO2 in air, colonies of greater than 50 cells are counted using an inverted microscope. The results are presented as the percent inhibition of colony formation in the presence of drug compared to solvent control cultures.

[7] = tested on: Human bone marrow cells, CFU-GM; test: Bone marrow toxicity assay, CFU-GM; type: cell-based
Procedure: as §2

replicon HCV RNA = test: HCV replicon assay (clone not specified); conditions: Hepatitis C virus, read-out: EC90 values, range for the replicon clones, range over replicon clones of Table 1
[8] = tested on: serum amino transferase levels; conditions: Gary L. Davis, 2000; cited from earlier work
HCV replicon system = conditions: Stuyver et al. 2003; cited from earlier work

**Q.** Which results are given for `C[C@@]1(O)[C@H](O)[C@@H](CO)O[C@H]1n1ccc(N)nc1=O` [2′-C-methylcytidine]?
**A.** activity on HCV surrogate model BVDV (in words) (BVDV): greater activity; EC90 (BVDV; BVDVcp): 2 µM; EC90 (BVDV; BVDVncp): 0.5 µM; EC90 (RSV): > 100 µM; EC90 (HBV): > 10 µM; CC50 [1]: 75 to 100 µM; CC50 at 4 days [2]: > 100 µM; CC50 at 4 days [3]: > 100 µM; CC50 at 4 days [4]: > 100 µM; CC50 at 4 days [5]: > 100 µM; Lactic Acid Increase (HepG2 cells): No effect ≥ 33 μM; IC50 (HepG2 cells; Homo sapiens, 168 h, read-out: mtDNA Synthesis (IC50)): > 25 µM; IC50 ([6]; Bone marrow cell): 20.1 µM; IC50 ([7]; CFU-GM): 13.2 µM; EC90 (replicon HCV RNA): 6.6 to 37.4 µM

**Q.** Which IC50 [6] does the source give for `Cc1cn([C@H]2C[C@H](N=[N+]=[N-])[C@@H](CO)O2)c(=O)[nH]c1=O` [AZT] here?
**A.** 0.08 µM

**Q.** What about the IC50 [7] of the same compound?
**A.** 0.95 µM

**Q.** Which “patients with serum amino transferase levels reduced to normal” value [8] does the source give for `NC(=O)c1ncn([C@@H]2O[C@H](CO)[C@@H](O)[C@H]2O)n1` [Ribavirin, 1-β-D-ribofuranosyl-1-1,2,4-triazole-3-carboxamide] here?
**A.** 40%

**Q.** What about the “specific anti-HCV activity in the HCV replicon system” value (HCV replicon system) of the same compound?
**A.** does not have specific anti-HCV activity
